One experiment deals with MDA-MB-231 cells. The experiment can be described thus: Cytotoxicity / synergistic cytotoxic effect test in MDA-MB-231 cells. The class given is cell-based, human. The text has this:
(§1) The cell lines used in the following examples, namely the MDA-MB-231 (human triple-negative breast cancer) cell line, the 4T1 (mouse triple-negative breast cancer) cell line, and the MCF-7 (breast cancer) cell line, are easily obtainable by a person with common knowledge in the art and therefore need not be deposited. The 4T1 cell line is frequently used as a research model for the metastasis of breast cancer and a model for the selection of clinical drugs for breast cancer.
(§2) MDA-MB-231 cells, 4T1 cells, and MCF-7 cells were treated with actinomycin D and doxorubicin in different ratios for 48 hours, before combination indices (CI) were calculated based on cytotoxicity.

Experiment [1] concerns 4T1 breast cancer mouse models. Briefly: Metastasis test in 4T1 breast cancer mouse models. The class given is in vivo. The note with it: 4T1 mouse model; five weeks, treated every 7 days; cyclophosphamide 5 mg/kg, doxorubicin 0.5 mg/kg, actinomycin D 20 μg/kg. How it is done:
4T1 breast cancer mouse models were created based on common knowledge in the art. The test lasted for five weeks, and the mice in each of the following groups were treated on the 0th, 7th, 14th, 21st, 28th, and 35th day of the test: • Group 1: Without any treatment; • Group 2: With cyclophosphamide administered at a dose of 5 mg/kg: • Group 3: With both cyclophosphamide and doxorubicin administered, the dose of cyclophosphamide being 5 mg/kg, and the dose of doxorubicin being 0.5 mg/kg (equivalent to a clinical dose of 20 mg/m^2 for humans); • Group 4: With actinomycin D administered at a dose of 20 μg/kg (equivalent to a clinical dose of […] for humans); • Group 5: With doxorubicin administered at a dose of 0.5 mg/kg: • Group 6: With both actinomycin D (20 μg/kg) and doxorubicin (0.5 mg/kg) administered; and • Group 7: With both actinomycin D (10 μg/kg) and doxorubicin (0.25 mg/kg) administered, the doses being 0.5 times as high as those for group 6.
Once the test was completed, the mice in each group were sacrificed, and the numbers of breast tumors that had metastasized to the lungs and to the liver (i.e., lung metastatic nodules and liver metastatic nodules) of each group of mice were counted. In addition, lungs and livers were collected from the mice, sectioned, and then stained with hematoxylin and eosin (H&E) stain, as shown in FIG. 20.

The test system of the next experiment is 4T1 cells. The experiment can be described thus: Cytotoxicity / synergistic cytotoxic effect test in 4T1 cells. The class given is cell-based, mouse.
Excerpt: as §1, §2

The subject of another experiment is MCF-7 cells. The experiment can be described thus: Cytotoxicity / synergistic cytotoxic effect test in MCF-7 cells. The class given is cell-based.
Excerpt: as §1, §2

The mark [2] stands for this setting: Table 1, MDA-MB-231 cells, read-out: IC50 of various chemotherapy drugs against different cancer cells.
Where [3] appears, read: Table 1, 4T1 cells, read-out: IC50 of various chemotherapy drugs against different cancer cells.
Setting [4] is: Table 1, MCF-7 cells, read-out: IC50 of various chemotherapy drugs against different cancer cells.

Read-outs that look alike come from different tables or passages of the source. Numbered stars: 1 amine (or outer) side, 2 acyl side, 3 side chain; on linkers, the order of the positions; unused ones are H or OH. Bridge positions count the residues as written; N and C are the ends. Square brackets hold non-standard residues; d marks the D form. Peptide text beside a SMILES is read from it. I, II: the chains in the order shown. Actinocin(9to1) = Cc1c2oc3c(C)ccc(C(=O)[*:1])c3nc-2c(C(=O)[*:2])c(N)c1=O; NMeV = CN[C@H](C(=O)O)C(C)C; Sar = CNCC(=O)O

Broadly, the IC50 is the concentration that inhibits the measured activity by half. Consider `Cc1c2oc3c(C)ccc(C(=O)N[C@@H]4C(=O)N[C@H](C(C)C)C(=O)N5CCC[C@H]5C(=O)N(C)CC(=O)N(C)[C@@H](C(C)C)C(=O)O[C@@H]4C)c3nc-2c(C(=O)N[C@@H]2C(=O)N[C@H](C(C)C)C(=O)N3CCC[C@H]3C(=O)N(C)CC(=O)N(C)[C@@H](C(C)C)C(=O)O[C@@H]2C)c(N)c1=O` [Actinomycin D, actinomycin D] (I: T[dV]P[Sar][NMeV] / II: T[dV]P[Sar][NMeV]; ester I:1-I:C, II:1-II:C; linker I:N-II:N via Actinocin(9to1)), for which the half-maximal inhibitory concentration (IC50) with MDA-MB-231 cells (Homo sapiens, MDA-MB-231, 48 h) was found to be 3.3 nM; in the experiment on MDA-MB-231 cells (Homo sapiens, MDA-MB-231, read-out: IC50 of various chemotherapy drugs against different cancer cells), 1100 ± 190 nM; in the experiment on 4T1 cells (Mus musculus, 4T1, 48 h), 2.6 nM; in the experiment on 4T1 cells (Mus musculus, 4T1, read-out: IC50 of various chemotherapy drugs against different cancer cells) it was 500 ± 40 nM; with MCF-7 cells (Homo sapiens, MCF7, 48 h), 3.7 nM; in the experiment on MCF-7 cells (Homo sapiens, MCF7, read-out: IC50 of various chemotherapy drugs against different cancer cells) it was 300 ± 60 nM. Besides, the “number of liver metastatic nodules” value in experiment [1] is on record as “increased in comparison with those of group-3 mice”. Moreover, the “number of lung metastatic nodules” value in experiment [1] is reported as “increased in comparison with those of group-3 mice”.
Regarding `O=P1(N(CCCl)CCCl)NCCCO1` (stereo not drawn) [cyclophosphamide], in experiment [1], the “number of liver metastatic nodules” value is listed as “reduced only slightly” and the “number of lung metastatic nodules” value is on record as “reduced only slightly”.
For `O=c1[nH]cc(F)c(=O)[nH]1` [5FU], the half-inhibitory concentration (IC50) was above 100000 nM with MDA-MB-231 cells (setting [2]), 5900 ± 300 nM with 4T1 cells (setting [3]) and 38300 ± 5000 nM in the experiment on MCF-7 cells (setting [4]).
Regarding `COc1cccc2c1C(=O)c1c(O)c3c(c(O)c1C2=O)C[C@@](O)(C(=O)CO)C[C@@H]3O[C@H]1C[C@H](N)[C@H](O)[C@H](C)O1` [Doxorubicin, doxorubicin], the concentration for half-maximal inhibition (IC50) with MDA-MB-231 cells (Homo sapiens, Table 1, MDA-MB-231 cells, read-out: IC50 of various chemotherapy drugs against different cancer cells) was determined as 6.5 ± 0.9 nM; with MDA-MB-231 cells (Homo sapiens, Table 2, single drug, MDA-MB-231 cells, 48 hours, read-out: IC50) it was 1270 nM; with 4T1 cells (Mus musculus, Table 1, 4T1 cells, read-out: IC50 of various chemotherapy drugs against different cancer cells), 2.8 ± 1.1 nM; in the experiment on 4T1 cells (Mus musculus, Table 2, single drug, 4T1 cells, 48 hours, read-out: IC50) it was 579 nM; in the experiment with MCF-7 cells (Homo sapiens, MCF7, Table 1, MCF-7 cells, read-out: IC50 of various chemotherapy drugs against different cancer cells), 4.5 ± 1.7 nM; with MCF-7 cells (Homo sapiens, MCF7, Table 2, single drug, MCF-7 cells, 48 hours, read-out: IC50), 323 nM. The “number of liver metastatic nodules” value in experiment [1] is “significantly less liver metastatic nodules than group-1 mice”. For the same compound, the “number of lung metastatic nodules” value in experiment [1] is “approximately the same number of lung metastatic nodules as group-3 mice”.
On to `N.N.[Cl][Pt][Cl]` [Cisplatin, cisplatin], for which the concentration for half-maximal inhibition (IC50) with MDA-MB-231 cells (setting [2]) is 37200 ± 5100 nM; in the experiment with 4T1 cells (setting [3]) it was 3300 ± 1200 nM; with MCF-7 cells (setting [4]), 19100 ± 2200 nM.

Source of the values: patent US20240307484A1 (priority 2023, published 2024).
